These results are taken from US20080039410A1, “Inositol 1,4,5-Trisphosphate Receptor Mutants and Uses Thereof” (priority 2004, published 2008).

For test [1], the system named is S2+ InsP3R-1. As to the kind of experiment: Potentiation of CCh-induced Ca2+ release after PKA activation (forskolin), S2+ InsP3R-1 constructs in DT-40 3ko cells. The test is classed as cell-based, rat. As to conditions: 30 min pretreatment, cells expressing S2+ InsP3R-1. The method, then: DT-40 cells lacking all three InsP3 receptor subtypes DT-40 3ko were transfected using electroporation, 350 V and 950 μF. 2×10^7 cells were co-transfected with 25 μg of the InsP3R cDNA, 25 μg of the muscarinic type 3 (M3) receptor, and 4 μg of the red fluorescent protein plasmid pHcRed1-N1. Cells were incubated with DNA in 500 μL of Optimem media on ice for 10 minutes. The cell/DNA mixture was electroporated, incubated on ice for 30 minutes, brought up to 5 ml with Optimem and placed in a 5% C02 incubator at 39° C. for 5 hours. The cells were then centrifuged and resuspended in 12 ml of complete RPMI media. Transfection efficiency was typically ˜20%. Experiments were performed within 32 hours of transfection.
(§1) Transfected DT-40 3ko cells were washed once in a HEPES-buffered physiological saline solution (HEPES-PSS) containing (in mM) 5.5 glucose, 137 NaCl, 0.56 MgCl2, 4.7 KCl, 1 Na2HPO4, 10 HEPES (pH 7.4), 1.2 CaCl2 and 1% w/v Bovine Serum Albumin. Cells were then resuspended in BSA HEPES-PSS with 1 μM Fura-2 (AM), placed on a 15 mm glass coverslip in a low volume perfusion chamber (Warner Instruments) and allowed to adhere for 30 minutes at room temperature. Cells were perfused continually for 10 minutes with HEPES-PSS before experimentation to allow Fura-2 de-esterification. A field of cells for each experiment was chosen that contained a wide range of transfection efficiency based upon the intensity of red fluorescence emitted when excited at 560 nm. [Ca^2+]i imaging was performed essentially as previously described using an inverted epifluorescence Nikon microscope with a 40× oil immersion objective lens (numerical aperture, 1.3). Cells were excited alternately with light at 340 and 380 nm (±10 mn bandpass filters, Chroma) using a monochrometer (TILL Photonics). Fluorescence images were captured and digitized with a digital camera driven by TILL Photonics software. Images were captured every 2 seconds with an exposure of 35 ms and no binning. 340/380 ratio images were calculated online and stored immediately to hard disk.
(§2) The effects of treatment were determined by normalizing the peak change in fluorescence ratio by stimulation following forskolin or 8-Br cGMP exposure to that of stimulation in control HEPES-PSS. Thus, pooled data represents a normalized fold increase over control for the treated trial. Two tailed heteroscedastic t-tests with P values<0.05 were considered to have statistical significance.
Experiments were performed in DT-40 3ko cells transfected with S2^+ InsP3R-1. Since there are no reports of Gαq coupled receptors expressed in DT-40 cells, initial experiments were performed eliciting [Ca^2+]i changes by stimulating the endogenous B cell receptor with α-IgM antibody. […] Thus, in all further experiments, DT-40 3ko cells were co-transfected with the M3 receptor, and HcRed to facilitate identification of transfected cells (inset FIG. 1). Stimulation of M3 receptors with the muscarinic agonist carbachol (CCh), provided a convenient means of stimulating [Ca^2+]i changes, presumably through Gαq-induced activation of phospholipase C and production of InsP3. […] The potentiation was most marked when threshold elevations in [Ca^2+]i were evoked by the initial exposure to CCh and therefore only cells in which the initial CCh treatment evoked a Δ 340/380 ratio of<0.2 ratio units were included for analysis. […] [Ca^2+]i changes were never evoked by CCh treatment in cells transfected with only M3 cDNA in the absence of InsP3R or likewise InsP3R with no M3 cDNA.
The effects of treatment were determined by normalizing the peak change in fluorescence ratio by stimulation following forskolin or 8-Br-cGMP exposure to that of stimulation in control HEPES-PSS. Thus, pooled data represent a normalized fold increase over control for the treated trial. In all cases where statistical significance is indicated, two-tailed heteroscedastic t tests were performed. […]

For test [2], the system named is S2+ InsP3R-1. Briefly: Potentiation of CCh-induced Ca2+ release after PKG activation (8-Br cGMP), S2+ InsP3R-1 constructs in DT-40 3ko cells. It counts as cell-based, rat. The settings on record: 30 min pretreatment, cells expressing S2+ InsP3R-1. The method, then: as §1, §2
Similar experiments were performed to assess the effects on Ca^2+ release of phosphorylating InsP3R-1 with PKG. Cells transfected with S2^+ InsP3R-1 together with M3 receptor and HcRed were stimulated with low, threshold concentrations of CCh (25-50 nM) followed by a 10 min treatment with 10 μM 8-Br cGMP, a specific activator of PKG [48]. […] In a similar fashion to PKA activation, this was manifested as an increase in the CCh-induced initial peak (FIG. 4A and pooled data FIG. 4E).
The effects of treatment were determined by normalizing the peak change in fluorescence ratio by stimulation following forskolin or 8-Br-cGMP exposure to that of stimulation in control HEPES-PSS. Thus, pooled data represent a normalized fold increase over control for the treated trial. In all cases where statistical significance is indicated, two-tailed heteroscedastic t tests were performed. P values<0.05 were considered to indicate statistical significance and are denoted by an asterisk in the figures.
Despite these differences, experiments were performed to define further the phosphorylation sites important for regulation of Ca^2+ release by PKG. […] In contrast, in cells expressing S2+SE no effect on CCh-induced Ca^2+ release following activation of PKG was observed (FIG. 23C and pooled data in FIG. 23D).

Test [3] has as its system InsP3R-III. Briefly: PKA stimulation of Ca2+ signals in DT-40 3ko cells transfected with rat InsP3R-III. The test is classed as cell-based.

Where no end group is shown, it is not given here. The star is where a group is joined. Myristoyl = CCCCCCCCCCCCCC(=O)*

With “PKI: cell-permeable PKA inhibitor, myristolyated PKI (Myristoyl-SGRTGRRNA; UniProt P61925 14-22, looked up, fragment) [reference compound]”, the entries for the “effect of PKI on forskolin-induced enhancement of Ca^2+ release” value in test [1] and in test [1] (listed as myristolyated PKI) were “completely abolishes” and “completely abolished”, respectively. Also, the figures for the “effect of PKI on 8-Br cGMP-induced enhancement of Ca^2+ release” value in test [2] and in test [2] (listed as myristolyated PKI) were “does not affect” and “did not alter”, respectively.
Turning to “rat InsP3R-III: rat type 3 InsP3 receptor transfected into DT-40 3ko cells”, the “effect of stimulating PKA on Ca^2+ signals” value in test [3] is “inhibited”.
